Experimental data reported in patent publication EP2832223A1, “HERBICIDAL COMPOSITION” (Ishihara Sangyo Kaisha, Ltd., priority 2012, dated 2013).

Columns and labels:
Type in all cases: in vivo
[1] = tested on: Japanese millet (Echinochloa utilis Ohwi et Yabuno); test: Test Example 5: pot test, soil treatment, visual growth inhibition; conditions: soil treatment, 28th day after treatment, read-out: Growth inhibition rate (%) of Japanese millet Measured value
Experimental: (§1) Upland field soil was put into a 1/300,000 ha pot, and seeds of Japanese millet (Echinochloa utilis Ohwi et Yabuno) were sown. On the next day, predetermined amounts of ONEHOPE NYUZAI (tradename), Click (tradename) and SC formulation containing topramezone as an active ingredient (tradename: Clio, manufactured by BASF) were diluted with water (in an amount corresponding to 1,000 L/ha) and applied for soil treatment by a small sprayer.
(§2) On the 28th day after treatment, the state of growth of the Japanese millet was visually observed to determine the growth inhibition rate (%). The growth inhibition rate (%) (measured value) and the growth inhibition rate (%) calculated in the same manner as in the above Test Example 1 are shown in Table 5.

[2] = tested on: Japanese millet (Echinochloa utilis Ohwi et Yabuno); test: Test Example 9: pot test, soil treatment, visual growth inhibition; conditions: soil treatment, 28th day after treatment, read-out: Growth inhibition rate (%) of Japanese millet Measured value
Experimental: as §1, with “Click (tradename), Mikado” for “Click”, “a wettable powder containing bicyclopyrone prepared in accordance with a conventional” for “SC”, “method” for “containing topramezone as an active ingredient (tradename: Clio, manufactured by BASF)”
as §2, with “9.” for “5.”

[3] = tested on: korean lespedeza (Kummerowia stipulacea (Maxim.) Makino); test: Test Example 6: pot test, soil treatment, visual growth inhibition; conditions: soil treatment, 14th day after treatment, read-out: Growth inhibition rate (%) of korean lespedeza Measured value
Experimental: (§3) Upland field soil was put into a 1/300,000 ha pot, and seeds of korean lespedeza (Kummerowia stipulacea (Maxim.) Makino) were sown. On the next day, predetermined amounts of ONEHOPE NYUZAI (tradename), Click (tradename), Mikado (tradename) and a wettable powder containing bicyclopyrone prepared in accordance with a conventional formulation method were diluted with water (in an amount corresponding to 1,000 L/ha) and applied for soil treatment by a small sprayer.
as §2, with “14th” for “28th”, “korean lespedeza” for “Japanese millet”, “6.” for “5.”

[4] = tested on: wild oat (Avena fatua L.); test: Test Example 4: pot test, soil treatment, visual growth inhibition; conditions: soil treatment, 28th day after treatment, read-out: Growth inhibition rate (%) of wild oat Measured value
Experimental: as §3, with “1/1,000,000” for “1/300,000”, “wild oat (Avena fatua L.)” for “korean lespedeza (Kummerowia stipulacea (Maxim.) Makino)”, “Click” for “Click (tradename), Mikado”
as §2, with “wild oat” for “Japanese millet”, “4.” for “5.”

[5] = tested on: velvetleaf (Abutilon theophrasti Medic.); test: Test Example 16: pot test, soil and foliar treatment, visual growth inhibition; conditions: soil treatment and foliar treatment, 29th day after treatment, read-out: Growth inhibition rate (%) of velvetleaf Measured value
Description: Upland field soil was put into a 1/1,000,000 ha pot, and seeds of velvetleaf (Abutilon theophrasti Medic.) were sown. When the velvetleaf reached 4.0 to 4.3-leaf stage, seeds of velvetleaf were further sown in the same pot assuming conditions such that weeds would later grow. Three days later, predetermined amounts of ONEHOPE NYUZAI (tradename), Click (tradename), Callisto (tradename), Mikado (tradename), a wettable powder containing bicyclopyrone as an active ingredient and Clio (tradename) were diluted with water in an amount corresponding to 300 L/ha and applied for soil treatment and for foliar treatment by a small sprayer.
as §2, with “29th” for “28th”, “velvetleaf” for “Japanese millet”, “16.” for “5.”

[6] = tested on: common cocklebur (Xanthium strumarium L.); test: Test Example 1: pot test, foliar treatment, visual growth inhibition; conditions: foliar treatment at 4.3 to 4.8-leaf stage, 22nd day after treatment, read-out: Growth inhibition rate (%) of common cocklebur Measured value
Description: In the present invention, a synergistic effect means a higher herbicidal activity of three active ingredients combined, than the simple sum of the respective herbicidal activities of the three active ingredients (the expected activity). The activity expected by the combination of three active ingredients can be calculated as follows (Colby S.R., "Weed", vol. 15, p. 20-22, 1967). […] Upland field soil was put into a 1/300,000 ha pot, and seeds of common cocklebur (Xanthium strumarium L.) were sown. […] Click, manufactured by BASF) and EC formulation containing dimethenamid-P as an active ingredient (tradename: Spectrum, manufactured by BASF) were diluted with water (in an amount corresponding to 1,000 L/ha) and applied for foliar treatment by a small sprayer. On the 22nd day after treatment, the state of growth of the common cocklebur was visually observed to determine the growth inhibition rate (%) in accordance with the following evalution standard. The growth inhibition rate (%) (measured value) and the growth inhibition rate (%) (calculated value) calculated by the Colby's formula are shown in Table 1.

[7] = tested on: common cocklebur (Xanthium strumarium L.); test: Test Example 12: pot test, foliar treatment, visual growth inhibition; conditions: foliar treatment at 4.2 to 4.3-leaf stage, 28th day after treatment, read-out: Growth inhibition rate (%) of common cocklebur Measured value
Experimental: Upland field soil was put into a 1/1,000,000 ha pot, and seeds of common cocklebur (Xanthium strumarium L.) were sown. When the common cocklebur reached 4.2 to 4.3-leaf stage, predetermined amounts of ONEHOPE NYUZAI (tradename), Click (tradename) and water dispersible granules containing flufenacet as an active ingredient (tradename: Cadou, manufactured by Bayer CropScience) were diluted with water (in an amount corresponding to 1,000 L/ha) and applied for foliar treatment by a small sprayer.
as §2, with “common cocklebur” for “Japanese millet”, “12.” for “5.”

For `CCNc1nc(Cl)nc(NC(C)(C)C)n1` [Terbuthylazine, N^2-tert-butyl-6-chloro-N^4-ethyl-1,3,5-triazine-2,4-diamine], the inhibition at 500 g/ha ([1]; 500 g/ha) was 50%, the inhibition at 2000 g/ha ([2]; 2000 g/ha) was 65% and the inhibition at 200 g/ha ([3]; 200 g/ha) was 10%. It also gave an inhibition at 2000 g/ha ([3]; 2000 g/ha) of 25%, an inhibition at 500 g/ha ([4]; 500 g/ha) of 15% and an inhibition at 500 g/ha ([5]; 500 g/ha) of 15%. For the same compound, the inhibition at 1000 g/ha ([5]; 1000 g/ha) was 18%, the inhibition at 500 g/ha ([6]; 500 g/ha) was 10% and the inhibition at 250 g/ha ([7]; 250 g/ha) was 30%.

`COc1cc(OC)nc(NC(=O)NS(=O)(=O)c2ncccc2C(=O)N(C)C)n1` [Nicosulfuron, 2-(4,6-dimethoxypyrimidin-2-ylcarbamoylsulfamoyl)-N,N-dimethylnicotinamide] gave an inhibition at 30 g/ha ([1]; 30 g/ha) of 40%, an inhibition at 10 g/ha ([2]; 10 g/ha) of 0% and an inhibition at 10 g/ha ([3]; 10 g/ha) of 0%. For the same compound, the inhibition at 100 g/ha ([3]; 100 g/ha) was 0%, the inhibition at 30 g/ha ([4]; 30 g/ha) was 30% and the inhibition at 30 g/ha ([5]; 30 g/ha) was 0%. For the same compound, the inhibition at 30 g/ha ([6]; 30 g/ha) was 0% and the inhibition at 15 g/ha ([7]; 15 g/ha) was 80%.
